The test system of data set [1] is U87 MG-luc2 human glioma cells, stably expressing luc2. Put plainly: Luciferase gene downregulation by CPP/siRNA (siLuc2) complexes. It is filed as cell-based. The note with it: for Red (%) (reduction, based on remaining luminescence on U87 cells post-treatment) / luciferase downregulation efficiency (in words): CPP/siRNA complexes; for Red (%) (reduction, based on remaining luminescence on U87 cells post-treatment): siRNA against luciferase; for luciferase downregulation efficiency (in words): comparison between CPPs. The method, then: (§1) For assessing the siRNA mediated RNAi, CHO-GFP or U87-luc2 cells (5×10^5 cells per well) were seeded on a 24-well plate a day prior to the experiment and grown in serum containing media. On experiment day, prior to adding pre-formed complexes ( 1/10th of the final volume per well), media was replaced with fresh serum containing medium.
(§2) For complex formation, peptide was mixed with luc2 siRNA (sense 5′-[…]-3′ (SEQ ID NO:7), antisense 5′-[…] 3′ (SEQ ID NO:8), Metabion, Germany) or with siRNA against GFP (5′-[…] (SEQ ID NO:9), 3′-[…] (SEQ ID NO:10)) in mQ water (pH 5.3-6.3) using peptide to siRNA molar ratios (MR is the ratio of peptide to siRNA) […] and incubated at RT for 1 h. For siLuc2, the final concentration in media was 25 nM and for siGFP 100 nM. Cells were co-incubated with complexes for 4 h (37° C., 5% CO2), thereafter fresh serum containing media was added and followed by further incubation (20 h for siLuc2 or 44 h for siGFP complexes). Luciferase gene downregulation was measured from cell lysates with Promega luciferase assay system (Promega, Sweden) in combination with GLOMAX 96 microplate luminometer equipped with GLOMAX 1.9.2 software (Promega). GFP was measured after treatment from cell lysates on black 96-well plates by measuring total fluorescence (Symergy MX, BioTek Instruments, USA equipped with Gen5 1.10 software). The results were normalized to the protein content of each sample (DC Protein Assay, BioRad, USA).
Luciferase activity was determined as described in previous paragraph.
For determination of pH dependency on the transfection efficiency, complexes were formed at MR30, incubated and diluted before addition to cells to obtain siRNA final concentration 10 nM in transfection media. HEPES buffer supplemented with 10% FBS was used as transfection media. Complexes were co-incubated with cells for 4 h and then media was replaced with cell growth media. After further 20 h incubation cells were lysed and analyzed as described previously.
The experiment was carried out in serum containing media (10% FBS). CPP/siRNA complexes were formed at different molar ratios with siRNA concentration kept constant (50 nM in transfection media). Luminescence from luciferin-luciferase reaction was measured at 24 hours post-treatment from cell lysate. Results were normalized to protein content and luminescence values from untreated cells (100%).

Data set [2] in a line: Negative staining TEM of CPP/siRNA nanoparticles. It is filed as physicochemical. Conditions: CPP/siRNA complexes at MR30. The method, then: For the morphological analysis the CPP/siRNA complexes were assembled as described above at MR30. For negative staining, copper grids were covered with Formvar film and carbon layer using Leica EM ACE600 carbon coater (Leica Microsystems, Germany). Then, 10 μL of each sample was absorbed to the grids for 2 min and excess of solution was gently removed. Samples were then exposed to 2% aqueous uranyl acetate solution for 1 min. After removing excess stain with filter paper, the samples were allowed to air-dry. The samples were examined at 120 kV accelerating voltage on FEI Tecnai G2 Spirit electron microscope (FEI, The Netherlands).

Data set [3] in a line: Fluorescent dye (PicoGreen) intercalation and heparin displacement assay of CPP/siRNA complexes. It is filed as physicochemical. The method, then:
Complexation of siRNA and CPPs was assessed by Quant-iT™ PicoGreen® (PG) (Thermo Fisher Scientific, USA) assay in mQ water. Complexes were prepared as described previously, following addition of diluted PG. For detection, complexes (⅕ of volume), water (3/5) and PG (1/5) working dilution was incubated for 5 minutes and fluorescence was measured by fluorimeter (λex=492 nm, λem=535 nm) (SynergyMx, BioTek). For heparin displacement, instead of water, heparin salt solution at different concentrations were used and complexes incubated at 37° C. for 30 min before addition of PG dilution. Complex formation was also confirmed by gel electrophoresis (details in section 2.11).

The test system of a further data set is murine red blood cells. Nature of the data set: Membrane activity assay on murine red blood cells: hemolysis. Conditions: for HC50 Free peptide: pH 7.5; for pH dependent hemolytic activity (in words): buffer pH 5.5-7.5. It is filed as cell-based, mouse. Here is the method:
For evaluation of membrane activity of peptides, hemolysis assay was used. For this whole blood was collected from mouse (adult, BALB/c) saphenous vein into a heparinized collection tube. Blood was centrifuged (2300× g, 15 min) to separate cells (red blood cells-RBC) from the plasma. RBCs were washed according to following procedures.
RBCs were washed with 10 ml 0.9% NaCl saline and centrifuged (600× g, 15 min). Supernatant was discarded after each centrifugation. This was repeated at least 3 times. RBCs were re-suspended in 5 ml saline and distributed equally to tubes and centrifuged (600× g, 15 min). The cells were washed and re-suspended in 2× PBS with the required pH (pH 5.5-7.5). The hemoglobin content in stocks was measured after lysis of cells with equal volume of 0.1% Triton X100 supplemented with 5% glucose. The cell suspension was diluted accordingly for each pH value to obtain similar concentration range of hemoglobin in stocks. To each 100 ul of peptide solution 100 ul of 10% glucose was added, mixed, and equal volume (200 ul) of RBC in 2× PBS were added and gently mixed. Peptide solution with RBCs was incubated at 37° C. for 1 h with gentle mixing (max 300 rpm) after which samples were centrifuged to pellet intact cells from the solution. Hemoglobin from lysed cells was determined from each sample from the supernatant on transparent 96-well plates by measuring the absorbance at 540 nm.
Controls were incubated in similar manner as samples. As a non-hemolysis control mQ supplemented with glucose (0%) was used and for hemolytic control 0.1% TritonX-100 with glucose (100%) was used (cells are suspended in 2× PBS before addition). Final percent was calculated as follows: […]
For hemolytic concentration determination 2× PBS at pH 7.5 was used for incubation and 1× PBS at pH 7.5 was used for washing. Everything else is as described in previous paragraph.

In data set [4] the test system is CHO stably expressing green fluorescent protein (GFP). Nature of the data set: GFP gene downregulation by CPP/siGFP complexes (lysate fluorescence, FACS, confocal). It is filed as cell-based. Here is the method: as §1, §2
For flow cytometry analysis (FACS) analysis CHO-GFP cells were seeded and treated as described previously. After incubation, cells were washed with 1× PBS and detached from plates with trypsin-EDTA (0.25%), and re-suspended in PBS supplemented with FBS (5%) and transferred to transparent U-bottom 96-well plates. FACS was carried out with BD LSR II flow cytometer (BD Biosciences, San Jose, CA, USA) equipped with a 488 nm argon laser. Population of viable cells was determined from scatter plot: forward scattered plot (FSC) vs. side scattered light (SSC) plot. A minimum of 10,000 events from the viable cell population per sample were analyzed using BD FACS Diva software. Results are shown as the population with GFP signal lower than that of 0.1% of untreated cells.
For confocal microscopy 2×10^5 cells per chamber were seeded on NUNC 8-chamber plates. After treatment with complexes (25 ul of pre-formed CPP/siRNA complexes added to cells in 225 ul serum containing media), incubated (48 h) and GFP florescence images of cells were captured using confocal microscope Zeiss LSM 710 and excitation at 488 nm (493-616 filter).

These results are taken from patent US12385042B2, “Cell-penetrating peptides” (VECTIOPEP OÜ, priority 2019, dated 2025).

Where a SMILES comes first, the peptide text is derived from it. Bridges are numbered along the chain shown (N, C = ends). Roman numbers before positions name the chains, in order. [ ]: non-standard residue; d: D form. The star is where a group is joined. Arachidoyl = CCCCCCCCCCCCCCCCCCCC(=O)*; Stearoyl = CCCCCCCCCCCCCCCCCC(=O)*; Orn = NCCC[C@H](N)C(=O)O

As for `CCCCCCCCCCCCCCCCCC(=O)N[C@@H](C)C(=O)NCC(=O)N[C@@H](Cc1ccc(O)cc1)C(=O)N[C@@H](CC(C)C)C(=O)N[C@@H](CC(C)C)C(=O)NCC(=O)NCCC[C@H](N)C(=O)N[C@H](C(=O)N[C@@H](CC(N)=O)C(=O)N[C@@H](CC(C)C)C(=O)N[C@@H](CCCCN)C(=O)N[C@@H](C)C(=O)N[C@@H](CC(C)C)C(=O)N[C@@H](C)C(=O)N[C@@H](C)C(=O)N[C@@H](CC(C)C)C(=O)N[C@@H](C)C(=O)N[C@@H](CCCCN)C(=O)N[C@@H](C)C(=O)N[C@H](C(=O)N[C@@H](CC(C)C)C(N)=O)[C@@H](C)CC)[C@@H](C)CC` [NF55, reference compound] (I: H-[Orn]INLKALAALAKAIL-NH2 / II: Stearoyl-AGYLLG; amide I:1-II:C), the “Red (%) (reduction, based on remaining luminescence on U87 cells post-treatment)” value in data set [1] is on record as 75%. In data set [2], the “length or size of elongated particles, conglomerates or aggregates (TEM)” value (“length or size of elongated particles” for short) is reported as “up to 100 nm” and the “nanoparticle diameter / size (TEM)” value is reported as 10-50 nm. In data set [3] (0.5 mg/ml heparin, complexes pre-formed at MR30), the siRNA accessible is given as 10%. The “HC50 CPP/siRNA complex (peptide concentration)” value with murine red blood cells (CPP/siRNA complexes at MR30) worked out at 3.2 µM. In the data set on murine red blood cells (free peptide), the “HC50 Free peptide” value worked out at 1.7 µM. Moreover, the “increase of hemolytic activity at pH 5.5” value in the data set on murine red blood cells (peptide 0.75 uM, buffer pH 5.5) was determined as 25%. Also, the “pH dependent hemolytic activity (in words)” value with murine red blood cells (peptide 0.75 uM) was “least influenced by the pH decrease”.

As to `CCCCCCCCCCCCCCCCCCCC(=O)N[C@@H](Cc1c[nH]cn1)C(=O)N[C@@H](Cc1c[nH]cn1)C(=O)N[C@@H](Cc1c[nH]cn1)C(=O)N[C@@H](Cc1c[nH]cn1)C(=O)N[C@@H](Cc1c[nH]cn1)C(=O)N[C@@H](Cc1c[nH]cn1)C(=O)N[C@@H](Cc1ccc(O)cc1)C(=O)N[C@@H](Cc1c[nH]cn1)C(=O)N[C@@H](Cc1c[nH]cn1)C(=O)NCC(=O)NCCC[C@H](N)C(=O)N[C@H](C(=O)N[C@@H](CC(C)C)C(=O)N[C@@H](CC(C)C)C(=O)N[C@@H](CCCCN)C(=O)N[C@@H](C)C(=O)N[C@@H](CC(C)C)C(=O)N[C@@H](CCCCN)C(=O)N[C@@H](C)C(=O)N[C@@H](CC(C)C)C(=O)N[C@@H](C)C(=O)N[C@@H](CCCCN)C(=O)N[C@@H](C)C(=O)N[C@H](C(=O)N[C@@H](CC(C)C)C(N)=O)[C@@H](C)CC)[C@@H](C)CC` [NF72] (I: H-[Orn]ILLKALKALAKAIL-NH2 / II: Arachidoyl-HHHHHHYHHG; amide I:1-II:C), in data set [1], the “luciferase downregulation efficiency (in words)” value is on record as “significantly less efficient than other compared CPPs” and the “Red (%) (reduction, based on remaining luminescence on U87 cells post-treatment)” value amounted to 80%. The remaining reporter activity in data set [1] (molar ratio 30 (MR30, peptide to siRNA), untreated cells 100%) was determined as 34%. Further, in data set [4] (CHO-GFP, CPP/siGFP complexes), the “cells with downregulated reporter gene (GFP signal below threshold), FACS” value was 40%. The “GFP signal in confocal images” value in data set [4] (live cells treated with CPP/siGFP complexes) is recorded as “higher GFP signal when compared to complexes formed with peptides with less histidines in sequence”. Also, in data set [3] (MR30, no heparin), the “accessibility of siRNA in complexes (dye intercalation)” value was “low accessibility of siRNA”. The “HC50 Free peptide” value in the data set on murine red blood cells (free peptide) is above 10 µM. In addition, the “hemolytic activity of free peptide (in words)” value with murine red blood cells (free peptide, up to 10 uM) is “less hemolytic than that of other peptides”. Besides, the “pH dependent hemolytic activity (in words)” value in the data set on murine red blood cells (peptide 0.75 uM) is listed as “almost no effect at physiologic pH, but lysed almost all cells at pH 5.5”.

For “HHHHYHHGO^eILLKALKALAKAIL [NF700, group H6; without fatty acid; C-terminally amidated]”, in data set [1], the “luciferase downregulation efficiency (in words)” value is listed as “do not reveal any significant luciferase silencing activity” and the “Red (%) (reduction, based on remaining luminescence on U87 cells post-treatment)” value is given as 6%. In data set [2], the “length or size of elongated particles” value is “exceed 500 nm”.

With “HHHHYHHGO^eILLKALKALAKAIL [NF703, group H6; C22 saturated fatty acid on N-terminus; C-terminally amidated]”, in data set [1], the “luciferase downregulation efficiency (in words)” value is “RNA interference effect decreases again” and the “Red (%) (reduction, based on remaining luminescence on U87 cells post-treatment)” value turned out to be 73%. The “length or size of elongated particles” value in data set [2] is on record as 10-20 nm.
